The test system of this assay is TGF-β1-stimulated Smad2 phosphorylation in Mv1Lu cells. Briefly: TGF-β1-stimulated Smad2 phosphorylation, quantitative Western blot (P-Smad2/Smad2). It is filed as cell-based. The note with it: several concentrations of the inhibitors, 100 pM TGF-β1 for 30 min. On the procedure:
(A-I, K) Cells were pretreated with 10 mg/ml β-CD (A, K), 20 LM MDC (B), 40 μM monensin (C), 20 μM TFP (D) and 0.45 M sucrose (K) or several concentrations (as indicated) of β-CD (E), TFP (F), monensin (G), chloroquine (H), dynasore (I), at 37° C. for 1 h. The cells were then stimulated with vehicle only or […] TGF-β1 (A to I) or several concentrations (as indicated) of TGF-β1 (K). After several time periods, as indicated, at 37° C., cell lysates were analysed by 7.5% SDS PAGE followed by Western blot analysis using antibodies to P-Smad2 and Smad2 and chemiluminescence development (a or top) and quantitation by densitometry (b or bottom). The relative level of P-Smad2 was expressed as arbitrary units (A.U.) (A, B, C, D, K) (b). The relative level of P-Smad2 in cells treated with TGF-β alone was taken as 100% of control (E to I, bottom). The data shown is representative of 3 independent experiments. (J) Cells were pretreated with 10 mg/ml β-CD (c,d) at 37° C. for 1 h. The cells were then stimulated with vehicle only (a) or with 100 pM TGF-β (b,d). After 30 min at 37° C. the cells were fixed and subjected to indirect immunofluorescent staining using antibody to P-Smad2. The magnification is 200×. The data shown is representative of 3 independent experiments.
If TGF-β-induced signaling occurs in endosomes, as reported previously^6-15, inhibitors of clathrin-dependent endocytosis would be expected to attenuate TGF-β-stimulated signaling such as Smad2 phosphorylation and nuclear colocalization^4,5. To test this, Mv1Lu cells were pretreated with vehicle only or with clathrin-dependent endocytosis inhibitors at 37° C. for 30 min and then treated with or without 100 pM TGF-β1. After several time periods, the relative levels of P-Smad2 in treated and stimulated cells were analyzed by quantitative Western blot analysis using antibodies to P-Smad2 and Smad2. […] After stimulation of cells with TGF-β1 for 60 min, β-CD, TFP, MDC and monensin enhanced TGF-β1-stimulated Smad2 phosphorylation by ˜1.5-2.5 fold (FIGS. 1Ab, 1Bb, 1Cb, and 1Db). To further characterize the effects of these inhibitors on Smad2 phosphorylation, Mv1Lu cells were pretreated with vehicle only or with several concentrations of the inhibitors at 37° C. for 30 min and then stimulated with 100 pM of TGF-β1. After 30 min at 37° C., cell lysates were subjected to Western blot analysis using antibodies to P-Smad2 and Smad2 followed by quantitation with densitometry. […] To determine the effect of β-CD on TGF-β1-stimulated nuclear localization of P-Smad2, Mv1Lu cells were pretreated with vehicle only or with β-CD (10 mg/ml). After 1 h at 37° C., cells were stimulated with TGF-β1 ([…]) for 30 min. The nuclear localization of P-Smad2 was then analyzed by indirect fluorescent staining.
To define the coated-pit stages that are important in TGF-β1-induced signaling, we treated Mv1Lu cells with hyperosmotic sucrose (0.45 M) or β-CD and examined TGF-β1-stimulated Smad2 phosphorylation in these cells. […] In cells stimulated with 100 pM TGF-β1, hyperosmotic sucrose attenuated Smad2 phosphorylation by ˜60% (FIG. 1Kb). On the other hand, β-CD enhanced TGF-β1-stimulated Smad2 phosphorylation at all concentrations of TGF-β1. It enhanced TGF-β1-stimulated Smad2 phosphorylation by 2-4 fold when compared with the control (treatment without β-CD) (FIGS. 1Ka and 1Kb).
On the technique in general: Immunoblotting shows a protein as a band on a membrane.

Each structure is given as a SMILES string.

In the case of `O=C(N/N=C/c1ccc(O)c(O)c1)c1cc2ccccc2cc1O` [dynasore], the “concentration dependence of the effect on TGF-β1-stimulated Smad2 phosphorylation” value is given as “enhanced TGF-β1-stimulated Smad2 phosphorylation in a concentration-dependent manner”.

Values taken from patent publication US8487006B2, “Method of enhancing TGF-β signalling” (Auxagen, Inc., priority 2008, dated 2013).
